Laboratory results taken from patent US11440907B1 (Merck Patent GmbH, priority 2018, dated 2022).

Test system: XBP1(u)-luciferase splicing reporter in HepG2 hepatoma cells
Test: HepG2 XBP1 reporter assay (XBP1(u)-Luc)
Type: cell-based
Conditions: Homo sapiens, 6 h, six hours after addition of compound
Excerpt: HepG2 XBP1 Reporter Assay
HepG2 hepatoma cells were transduced with a retrovirus encoding the cDNA for unspliced (u) XBP1, which contains a non-processed intron, fused to the cDNA for firefly luciferase. Upon induction of ER stress, the non-processed intron of XBP1(u) is spliced out by active IRE1alpha endonuclease. The resulting spliced (s) XBP1 is now in frame with luciferase which causes the production of active luciferase protein, resulting in bioluminescence
HepG2 XBP1(u)-Luc cells were plated […] Cultured cells with a stably transfected reporter construct were plated at approximately 30,000 cells per well into 96 well multi-well plates for twenty four hours. The testing compounds were then added to the wells in 3-fold serial dilutions using a twenty seven micromolar top concentration. A series of control wells for each cell type received only compound solvent. Six hours after the addition of compound, reporter activity for luciferase was assayed, by addition of the SteadyGlo luminescence reagent (Promega). The reporter luminescence activity was measured using Pherastar plate reader (BMG Labtech). Readings was normalized to DMSO only treated cells, and normalized activities were then used in the IC50 calculations. The HepG2 XBP1 reporter assay data are summarized in Tables 3-5: A<0.6 μM; 0.6 μM≤B<2.0 μM; 2.0 μM≤C<5.0 μM; D≥5.0 μM.

Compound | IC50 [nM]
Cc1cc(N2CCCOC[C@@H]2c2cc3c(cc2Cl)OCC2(CC2)CO3)nc(N)n1 [D-16] | 600 to 2000
COc1cc(C2COCCCN2c2cc(C)nc(N)n2)c(Cl)cc1OCC(=O)NC(C)(C)C [D-32] | 600 to 2000
CCOc1cc(C2COCCCN2c2cc(C)nc(N)n2)c(Cl)cc1OCC(=O)OC [D-44] | 600 to 2000
CCOc1cc(C2COCCCN2c2cc(C)nc(N)n2)c(Cl)cc1OCC(=O)NC(C)(C)C [D-47] | 600 to 2000
C=CCOc1cc(Cl)c(C2COCCCN2c2cc(C)nc(N)n2)cc1OCC [D-48] | 600 to 2000
COC(=O)Cc1cc(C2COCCCN2c2cc(C)nc(N)n2)c(Cl)cc1C#N [D-53] | 2000 to 5000
Cc1cc(N2CCCOC[C@@H]2c2ccc(NC(=O)C3(F)CCOC3)cc2Cl)nc(N)n1 (stereo partly drawn) [D-62] | 2000 to 5000
Cc1cc(N2CCCOC[C@@H]2c2ccc(C3CCNCC3)cc2Cl)nc(N)n1 [D-66] | 2000 to 5000
Cc1cc(N2CCCOCC2c2ncc(CS(C)(=O)=O)cc2OC(F)F)nc(N)n1 [D-67] | 600 to 2000
Cc1cc(N2CCCOC[C@@H]2c2ccc(C3CCN(C4COC4)CC3)cc2Cl)nc(N)n1 [D-69] | 600 to 2000
Cc1cc(N2CCCOCC2c2ccc(C3CCN(C4COC4)CC3)cc2Cl)nc(N)n1 [D-70] | 2000 to 5000
CCOc1cc(C2COCCCN2c2cc(C)nc(N)n2)c(Cl)cc1OCC(N)=O [D-72] | 600 to 2000
Cc1cc(N2CCCOCC2c2cc(CN)c(Cl)cc2C)nc(N)n1 [D-73] | 600 to 2000
Cc1cc(N2CCCOCC2c2cc(O)c(OC(F)(F)F)cc2Cl)nc(N)n1 [D-74] | < 600
Cc1cc(N2CCCOC[C@@H]2c2cc(CN)c(C)cc2Cl)nc(N)n1 [D-75] | < 600
Cc1cc(N2CCCOC[C@H]2c2cnc(CS(C)(=O)=O)cc2Cl)nc(N)n1 [D-76] | < 600
COC(=O)c1cc(C2COCCCN2c2cc(C)nc(N)n2)c(Cl)cc1C#N [D-77] | 600 to 2000
Cc1cc(N2CCCOCC2c2cc(O)c(S(C)(=O)=O)cc2Cl)nc(N)n1 [D-79] | 600 to 2000
Cc1cc(N2CCCOC[C@@H]2c2ccc(N3CCN(C(=O)OC(C)(C)C)CC3)cc2Cl)nc(N)n1 [D-82] | 600 to 2000
Cc1cc(N2CCCOC[C@@H]2c2ccc(NCC3CCOC3)cc2Cl)nc(N)n1 (stereo partly drawn) [D-83] | < 600
Cc1cc(N2CCCOC[C@@H]2c2ccc(N3C[C@@H](C)O[C@@H](C)C3)cc2Cl)nc(N)n1 [D-84] | 600 to 2000
Cc1cc(N2CCCOCC2c2cnc(CS(C)(=O)=O)cc2OC(F)F)nc(N)n1 [D-85] | 600 to 2000
CCc1cc(N2CCCOCC2c2cc(O)c(S(C)(=O)=O)cc2Cl)nc(N)n1 [D-87] | ≥ 5000

Compound | IC50 [nM]
Cc1cc(N2CCCOC[C@H]2c2ccc([C@@H]3CCCN3)cc2Cl)nc(N)n1 [D-88] | 2000 to 5000
Cc1cc(N2CCCOC[C@H]2c2ccc([C@H]3CCCN3)cc2Cl)nc(N)n1 [D-89] | 2000 to 5000
Cc1cc(N2CCCOC[C@@H]2c2ccc([C@H]3CCCN3)cc2Cl)nc(N)n1 [D-90] | < 600
Cc1cc(N2CCCOC[C@@H]2c2ccc([C@@H]3CCCN3)cc2Cl)nc(N)n1 [D-91] | < 600
Cc1cc(N2CCCOCC2c2ccc(NC(=O)CC(C)C)cc2Cl)nc(N)n1 [D-92] | 600 to 2000
Cc1cc(N2CCCOC[C@@H]2c2ccc(CS(C)(=O)=O)nc2OC(F)F)nc(N)n1 [D-93] | < 600
Cc1cc(N2CCCOCC2c2ccc(NC(=O)CC3CC3)cc2Cl)nc(N)n1 [D-94] | 2000 to 5000
CCCC(=O)Nc1ccc(C2COCCCN2c2cc(C)nc(N)n2)c(Cl)c1 [D-95] | 600 to 2000
Cc1cc(N2CCCOCC2c2ccc(NC(=O)CC(C)(C)C)cc2Cl)nc(N)n1 [D-96] | 600 to 2000
CCC(=O)Nc1cc(Cl)c(C2COCCCN2c2cc(C)nc(N)n2)cc1O [D-97] | < 600
CCc1cc(N2CCCOCC2c2cc(O)c(CS(C)(=O)=O)cc2Cl)nc(N)n1 [D-98] | < 600
Cc1cc(N2CCCOC[C@@H]2c2cc(CN)c(Cl)cc2C)nc(N)n1 [D-99] | < 600
Cc1cc(N2CCCOCC2c2cc(O)c(NC(=O)CC(C)(C)O)cc2Cl)nc(N)n1 [D-100] | 600 to 2000
CCOc1cc([C@H]2COCCCN2c2cc(C)nc(N)n2)c(Cl)cc1OCC(N)=O [D-101] | < 600
Cc1cc(N2CCCOCC2c2ccc(S(N)(=O)=O)cc2)nc(N)n1 [D-102] | ≥ 5000
Cc1cc(N2CCCOCC2c2sc(Cl)nc2Cl)nc(N)n1 [D-103] | 2000 to 5000
C#CCOc1cc(Cl)c([C@H]2COCCCN2c2cc(C)nc(N)n2)cc1OC [D-105] | < 600
CCc1ccccc1[C@H]1COCCCN1c1cc(C)nc(N)n1 [D-106] | < 600
Cc1cc(N2CCCOCC2c2ccc(Cl)cc2C#N)nc(N)n1 [D-107] | 600 to 2000
Cc1cc(N2CCCOCC2c2ccc3[nH]ncc3c2)nc(N)n1 [D-108] | 2000 to 5000
CC(=O)Nc1cc(Cl)c(C2COCCCN2c2cc(C)nc(N)n2)cc1O [D-109] | < 600
Cc1cc(N2CCCOCC2c2cc(O)c(NC(=O)C3CC3)cc2Cl)nc(N)n1 [D-112] | < 600
C#Cc1ccccc1C1COCCCN1c1cc(C)nc(N)n1 [D-113] | 600 to 2000

Compound | IC50 [nM]
Cc1cc(N2CCCOC[C@H]2c2cc3c(cc2Cl)NC[C@@](C)(C(=O)O)O3)nc(N)n1 [D-114] | ≥ 5000
Cc1cc(N2CCCOC[C@@H]2c2cc(O)c(C(N)=O)cc2Cl)nc(N)n1 [D-115] | 600 to 2000
CNC(=O)c1cc(Cl)c(C2COCCCN2c2cc(C)nc(N)n2)cc1O [D-118] | 600 to 2000
Cc1cc(N2CCCOC[C@@H]2c2cc3c(cc2Cl)NC[C@@](C)(C(N)=O)O3)nc(N)n1 [D-120] | < 600
Cc1cc(N2CCCOC[C@H]2c2cc(O)c(C(=O)NC(C)C)cc2Cl)nc(N)n1 [D-121] | ≥ 5000
Cc1cc(N2CCCOCC2c2cc3c(cc2Cl)NC[C@@](C)(C(=O)NC2CC2)O3)nc(N)n1 (stereo partly drawn) [D-122] | < 600
Cc1cc(N2CCCOC[C@@H]2c2cc(O)c(C(=O)NC(C)C)cc2Cl)nc(N)n1 [D-123] | 2000 to 5000
Cc1cc(N2CCCOCC2c2cc3c(cc2Cl)NC[C@@](C)(C(=O)NC(C)C)O3)nc(N)n1 (stereo partly drawn) [D-124] | < 600
Cc1cc(N2CCCOCC2c2cc3c(cc2Cl)NC[C@@](C)(C(=O)OC(C)C)O3)nc(N)n1 (stereo partly drawn) [D-125] | < 600
Cc1cc(N2CCCOC[C@@H]2c2cc3c(cc2Cl)NC[C@@](C)(C(=O)N2CCOCC2)O3)nc(N)n1 [D-126] | < 600
COc1cc(OC)c(C2COCCCN2c2cc(C)nc(N)n2)cc1O [D-127] | < 600
Cc1cc(N2CCCOC[C@H]2c2cc3c(cc2Cl)NC[C@@](C)(C(=O)OC(C)C)O3)nc(N)n1 [D-128] | 600 to 2000
CCOC(=O)c1cc(C2COCCCN2c2cc(C)nc(N)n2)c(Cl)cc1C#N [D-129] | ≥ 5000
Cc1cc(N2CCCOC[C@@H]2c2cc(O)c(C(=O)NCCO)cc2Cl)nc(N)n1 [D-130] | ≥ 5000
Cc1cc(N2CCCOC[C@@H]2c2cc(O)c(C(=O)NC3CC3)cc2Cl)nc(N)n1 [D-131] | ≥ 5000
Cc1cc(N2CCCOC[C@@H]2c2cc3c(cc2Cl)NC[C@@](C)(C(=O)N(C)C)O3)nc(N)n1 [D-132] | < 600
Cc1cc(N2CCCOC[C@@H]2c2cc3c(cc2Cl)NC[C@@](C)(C(=O)NCCO)O3)nc(N)n1 [D-133] | < 600
CCOC(=O)c1cc(Cl)c(C2COCCCN2c2cc(C)nc(N)n2)cc1C#N [D-134] | ≥ 5000
COC(=O)c1cc(Cl)c(C2COCCCN2c2cc(C)nc(N)n2)cc1C#N [D-135] | ≥ 5000
Cc1cc(N2CCCOCC2c2ccc(C(C)(C)S(C)(=O)=O)cc2Cl)nc(N)n1 [D-136] | < 600
Cc1cc(N2CCCOC[C@@H]2c2cc(O)c(C(=O)N3CCOCC3)cc2Cl)nc(N)n1 [D-137] | < 600

Same assay, conditions: Homo sapiens, 6 hours after compound addition, Table 4

Compound | IC50 [nM]
Cc1cc(N2CCCOC[C@@H]2c2cc(F)c(N3CCC(C)(O)CC3)cc2Cl)nc(N)n1 [C-125] | 600 to 2000
Cc1cc(N2CCCOC[C@@H]2c2ccc(N3CCC(C)(O)CC3)c(F)c2Cl)nc(N)n1 [C-126] | 600 to 2000
Cc1cc(N2CCCOC=C2c2c(O)cc(N3CCC(C)(O)CC3)cc2Cl)nc(N)n1 [C-127] | 2000 to 5000
Cc1cc(N2CCCOCC2c2cc(C)c(O)cc2Cl)nc(N)n1 (centres unmarked) [C-128] | 600 to 2000
Cc1cc(N2CCCOCC2c2cc3c(cc2Cl)CCCN3C)nc(N)n1 (centres unmarked) [C-129] | ≥ 5000
Cc1cc(N2CCCOCC2c2cc(OC(F)(F)F)c(N)cc2Cl)nc(N)n1 (centres unmarked) [C-130] | 600 to 2000
Cc1cc(N2CCCOC[C@H]2c2cc3c(cc2Cl)NC(=O)CO3)nc(N)n1 [C-131] | 600 to 2000
Cc1cc(N2CCCOC[C@@H]2c2cc3c(cc2Cl)CCN3)nc(N)n1 [C-134] | < 600
Cc1cc(N2CC3(CC3)COC[C@@H]2c2ccc(CS(C)(=O)=O)cc2Cl)nc(N)n1 [C-136] | ≥ 5000
Cc1cc(N2C[C@H](C)COC[C@H]2c2ccc(CS(C)(=O)=O)cc2Cl)nc(N)n1 [C-139] | ≥ 5000
Cc1cc(N2CCCOCC2c2cc(N)c(OC(F)(F)F)cc2Cl)nc(N)n1 (centres unmarked) [C-141] | < 600
CC(=O)Nc1cc(Cl)c(N2CCCOCC2c2cc(C)nc(N)n2)cc1C (centres unmarked) [C-143] | 600 to 2000
COc1cc(Cl)c([C@H]2COCCCN2c2cc(C)nc(N)n2)cc1OC(C)C [C-144] | 600 to 2000
CCNc1cc(Cl)c([C@H]2COCCCN2c2cc(C)nc(N)n2)cc1C [C-146] | < 600
CCOC(=O)[C@H](C)Oc1cc(Cl)c([C@@H]2COCCCN2c2cc(C)nc(N)n2)cc1OC [C-149] | 2000 to 5000
CCOC(=O)[C@H](C)Oc1cc(Cl)c([C@H]2COCCCN2c2cc(C)nc(N)n2)cc1OC [C-150] | 600 to 2000
